Measured values reported in the Kinase Knowledgebase extract (Sharma et al. 2016).

Biological target: EGFR (UniProt P00533)
Sequence (P00533 whole entry, looked up): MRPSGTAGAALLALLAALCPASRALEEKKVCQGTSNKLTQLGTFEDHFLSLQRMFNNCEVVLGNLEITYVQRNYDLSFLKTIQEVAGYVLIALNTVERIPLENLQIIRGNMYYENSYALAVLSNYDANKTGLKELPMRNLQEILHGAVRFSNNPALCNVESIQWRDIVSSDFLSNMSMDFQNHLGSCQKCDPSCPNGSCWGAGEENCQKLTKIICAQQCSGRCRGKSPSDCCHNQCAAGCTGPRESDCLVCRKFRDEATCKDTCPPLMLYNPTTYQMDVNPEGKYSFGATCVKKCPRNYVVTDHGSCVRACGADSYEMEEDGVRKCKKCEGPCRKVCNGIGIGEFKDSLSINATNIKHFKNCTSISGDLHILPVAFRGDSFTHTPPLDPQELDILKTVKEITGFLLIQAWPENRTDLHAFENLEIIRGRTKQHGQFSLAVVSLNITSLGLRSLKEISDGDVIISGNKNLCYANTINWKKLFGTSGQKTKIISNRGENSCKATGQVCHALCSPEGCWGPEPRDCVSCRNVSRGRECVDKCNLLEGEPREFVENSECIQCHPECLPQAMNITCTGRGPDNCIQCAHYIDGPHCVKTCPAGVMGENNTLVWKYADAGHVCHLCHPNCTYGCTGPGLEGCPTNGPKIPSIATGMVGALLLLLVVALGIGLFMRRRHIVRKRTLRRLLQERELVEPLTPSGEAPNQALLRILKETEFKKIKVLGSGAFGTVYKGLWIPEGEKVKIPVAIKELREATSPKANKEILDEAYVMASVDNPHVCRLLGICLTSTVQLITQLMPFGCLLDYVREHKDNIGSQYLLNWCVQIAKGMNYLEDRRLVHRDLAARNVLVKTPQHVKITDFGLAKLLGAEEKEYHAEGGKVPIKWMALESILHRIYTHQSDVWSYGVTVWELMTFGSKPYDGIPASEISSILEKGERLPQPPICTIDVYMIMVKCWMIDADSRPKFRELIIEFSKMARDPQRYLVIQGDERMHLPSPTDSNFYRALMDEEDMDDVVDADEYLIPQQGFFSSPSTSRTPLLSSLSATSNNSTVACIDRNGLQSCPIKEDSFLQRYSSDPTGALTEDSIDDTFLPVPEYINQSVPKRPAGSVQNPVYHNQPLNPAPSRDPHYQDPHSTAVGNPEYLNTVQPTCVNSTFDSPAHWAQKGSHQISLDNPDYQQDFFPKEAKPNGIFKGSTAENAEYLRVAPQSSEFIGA

Row | Structure (SMILES) | IC50 [µM]
1 | COc1cc2c(NS(=O)(=O)c3c(C)cc(C)cc3C)ncnc2cc1OCCN1CCCCC1 | ≤ 1
2 | COc1cc2c(NS(=O)(=O)c3ccc(C)cc3)ncnc2cc1OCCN1CCOCC1 | ≤ 1
3 | COc1cc2c(NS(=O)(=O)c3ccc(Br)cc3)ncnc2cc1OCCN1CCN(C)CC1 | ≤ 1
4 | COc1cc2c(NS(=O)(=O)c3cccc(Cl)c3)ncnc2cc1OCCN1CCN(C)CC1 | ≤ 1
5 | COc1cc2c(NS(=O)(=O)c3ccc(C(C)(C)C)cc3)ncnc2cc1OCCCN(C)C | ≤ 1
6 | COc1ccc(OC)c(S(=O)(=O)Nc2ncnc3cc(OC4CCN(C)CC4)c(OC)cc23)c1 | ≤ 1
7 | CCN(CC)CCOc1cc2ncnc(NS(=O)(=O)c3c(C)cc(C)cc3C)c2cc1OC | ≤ 1
8 | COc1cc2c(NS(=O)(=O)c3ccc4ccccc4c3)ncnc2cc1OC1CCN(C)CC1 | ≤ 1
9 | COc1cc2c(NS(=O)(=O)c3sc(C)nc3C)ncnc2cc1OCCN1CCOCC1 | ≤ 1
10 | COc1cc2c(NS(=O)(=O)c3ccc(Sc4ccccc4)s3)ncnc2cc1OCCCN(C)C | ≤ 1
11 | CCN(CC)CCOc1cc2ncnc(NS(=O)(=O)c3cccc(Cl)c3)c2cc1OC | ≤ 1
12 | COc1cc2c(NS(=O)(=O)c3ccc(C(C)(C)C)cc3)ncnc2cc1OCCN1CCN(C)CC1 | ≤ 1
13 | COc1cc2c(NS(=O)(=O)c3ccc(OC(F)(F)F)cc3)ncnc2cc1OC1CCN(C)CC1 | ≤ 1
14 | COc1cc2c(NS(=O)(=O)c3cn(C)cn3)ncnc2cc1OCCN1CCOCC1 | ≤ 1
15 | COc1cc2c(NS(=O)(=O)c3ccc4ccccc4c3)ncnc2cc1OCCCN(C)C | ≤ 1
16 | COc1cc2c(NS(=O)(=O)c3ccccc3C)ncnc2cc1OCCN1CCCCC1 | ≤ 1
17 | CCN(CC)CCOc1cc2ncnc(NS(=O)(=O)c3ccc(OC)cc3)c2cc1OC | ≤ 1
18 | COc1ccc(S(=O)(=O)Nc2ncnc3cc(OCCCN4CCOCC4)c(OC)cc23)cc1 | ≤ 1
19 | COc1cc2c(NS(=O)(=O)c3cccc(Cl)c3Cl)ncnc2cc1OCCN1CCOCC1 | ≤ 1
20 | COc1cc2c(NS(=O)(=O)c3cccc4cccnc34)ncnc2cc1OCCN1CCOCC1 | ≤ 1
21 | CCN(CC)CCOc1cc2ncnc(NS(=O)(=O)c3ccc(F)cc3)c2cc1OC | ≤ 1
22 | COc1cc2c(NS(=O)(=O)c3cccc(Cl)c3)ncnc2cc1OC1CCN(C)CC1 | ≤ 1
23 | CCN(CC)CCOc1cc2ncnc(NS(=O)(=O)c3c(C)noc3C)c2cc1OC | ≤ 1
24 | CCN(CC)CCOc1cc2ncnc(NS(=O)(=O)c3cccc4cccnc34)c2cc1OC | ≤ 1
25 | COc1cc2c(NS(=O)(=O)c3ccccc3C#N)ncnc2cc1OCCCN1CCOCC1 | ≤ 1
26 | COc1cc2c(NS(=O)(=O)c3ccc(C)cc3)ncnc2cc1OCCCN(C)C | ≤ 1

Row | Structure (SMILES) | IC50 [µM]
27 | COc1ccc(OC)c(S(=O)(=O)Nc2ncnc3cc(OCCN4CCOCC4)c(OC)cc23)c1 | ≤ 1
28 | COc1cc2c(NS(=O)(=O)c3ccc(Cl)cc3Cl)ncnc2cc1OCCCN1CCOCC1 | ≤ 1
29 | COc1cc2c(NS(=O)(=O)c3cccc4cccnc34)ncnc2cc1OCCCN1CCOCC1 | ≤ 1
30 | COc1cc2c(NS(=O)(=O)c3cccc(Br)c3)ncnc2cc1OC1CCN(C)CC1 | ≤ 1
31 | COc1cc2c(NS(=O)(=O)c3ccc(Sc4cccs4)s3)ncnc2cc1OCCN1CCOCC1 | ≤ 1
32 | CCN(CC)CCOc1cc2ncnc(NS(=O)(=O)c3ccccc3)c2cc1OC | ≤ 1
33 | CCN(CC)CCOc1cc2ncnc(NS(=O)(=O)c3ccc(OC(F)(F)F)cc3)c2cc1OC | ≤ 1
34 | COc1cc2c(NS(=O)(=O)c3ccc(F)cc3)ncnc2cc1OCCN1CCN(C)CC1 | ≤ 1
35 | COc1cc2c(NS(=O)(=O)c3ccc(Cl)s3)ncnc2cc1OCCN1CCCCC1 | ≤ 1
36 | COc1cc2c(NS(=O)(=O)c3cccc(Cl)c3Cl)ncnc2cc1OCCCN(C)C | ≤ 1
37 | COc1cc2c(NS(=O)(=O)c3ccccc3Cl)ncnc2cc1OCCCN(C)C | ≤ 1
38 | CCN(CC)CCOc1cc2ncnc(NS(=O)(=O)c3ccc(OC)c(OC)c3)c2cc1OC | ≤ 1
39 | CCN(CC)CCOc1cc2ncnc(NS(=O)(=O)c3cc(Cl)cc(Cl)c3)c2cc1OC | ≤ 1
40 | COc1cc2c(NS(=O)(=O)c3ccc(Cl)cc3)ncnc2cc1OC1CCN(C)CC1 | ≤ 1
41 | COc1cc2c(NS(=O)(=O)c3cccc(Br)c3)ncnc2cc1OCCN1CCCCC1 | ≤ 1
42 | COc1cc2c(NS(=O)(=O)Cc3ccccc3)ncnc2cc1OCCN1CCOCC1 | ≤ 1
43 | COc1cc2c(NS(=O)(=O)c3ccc4ccccc4c3)ncnc2cc1OCCN1CCCCC1 | ≤ 1
44 | COc1cc2c(NS(=O)(=O)c3ccc(Br)cc3)ncnc2cc1OCCCN(C)C | ≤ 1
45 | CCN(CC)CCOc1cc2ncnc(NS(=O)(=O)c3cn(C)cn3)c2cc1OC | ≤ 1
46 | COc1ccc(S(=O)(=O)Nc2ncnc3cc(OCCCN(C)C)c(OC)cc23)cc1 | ≤ 1
47 | CCN(CC)CCOc1cc2ncnc(NS(=O)(=O)Cc3ccccc3)c2cc1OC | ≤ 1
48 | COc1cc2c(NS(=O)(=O)c3cccc4cccnc34)ncnc2cc1OC1CCN(C)CC1 | ≤ 1
49 | COc1cc2c(NS(=O)(=O)c3cc(Cl)cc(Cl)c3)ncnc2cc1OCCN1CCN(C)CC1 | ≤ 1
50 | COc1cc2c(NS(=O)(=O)c3ccccc3Cl)ncnc2cc1OCCN1CCCCC1 | ≤ 1
51 | COc1cc2c(NS(=O)(=O)c3ccc(Sc4cccs4)s3)ncnc2cc1OCCN1CCCCC1 | ≤ 1
52 | COc1cc2c(NS(=O)(=O)c3ccccc3)ncnc2cc1OCCCN1CCOCC1 | ≤ 1

Row | Structure (SMILES) | IC50 [µM]
53 | CCN(CC)CCOc1cc2ncnc(NS(=O)(=O)c3ccc(Br)cc3)c2cc1OC | ≤ 1
54 | COc1ccc(S(=O)(=O)Nc2ncnc3cc(OCCN4CCOCC4)c(OC)cc23)cc1OC | ≤ 1
55 | COc1cc2c(NS(=O)(=O)c3ccccc3C)ncnc2cc1OCCN1CCN(C)CC1 | ≤ 1
56 | COc1cc2c(NS(C)(=O)=O)ncnc2cc1OCCN1CCN(C)CC1 | ≤ 1
57 | COc1cc2c(NS(=O)(=O)c3cccc(Cl)c3)ncnc2cc1OCCCN1CCOCC1 | ≤ 1
58 | COc1cc2c(NS(=O)(=O)c3ccc(Cl)cc3)ncnc2cc1OCCN1CCN(C)CC1 | ≤ 1
59 | COc1ccc(S(=O)(=O)Nc2ncnc3cc(OCCN4CCCCC4)c(OC)cc23)cc1OC | ≤ 1
60 | COc1cc2c(NS(=O)(=O)c3ccccc3C)ncnc2cc1OCCN1CCOCC1 | ≤ 1
61 | COc1cc2c(NS(=O)(=O)c3ccc(C)cc3)ncnc2cc1OCCN1CCN(C)CC1 | ≤ 1
62 | COc1cc2c(NS(=O)(=O)c3ccccc3C)ncnc2cc1OC1CCN(C)CC1 | ≤ 1
63 | COc1ccc(OC)c(S(=O)(=O)Nc2ncnc3cc(OCCCN(C)C)c(OC)cc23)c1 | ≤ 1
64 | CCN(CC)CCOc1cc2ncnc(NS(=O)(=O)c3ccc(Cl)cc3)c2cc1OC | ≤ 1
65 | COc1cc2c(NS(=O)(=O)c3ccc(Sc4cccs4)s3)ncnc2cc1OC1CCN(C)CC1 | ≤ 1
66 | COc1cc2c(NS(=O)(=O)c3ccc(Cl)s3)ncnc2cc1OCCCN(C)C | ≤ 1
67 | COc1cc2c(NS(=O)(=O)c3ccc(F)cc3)ncnc2cc1OCCN1CCOCC1 | ≤ 1
68 | COc1ccc(S(=O)(=O)Nc2ncnc3cc(OCCN4CCCCC4)c(OC)cc23)cc1 | ≤ 1
69 | CCN(CC)CCOc1cc2ncnc(NS(=O)(=O)c3ccc(Cl)s3)c2cc1OC | ≤ 1
70 | CCN(CC)CCOc1cc2ncnc(NS(=O)(=O)c3ccc(Sc4ccccc4)s3)c2cc1OC | ≤ 1
71 | COc1cc2c(NS(=O)(=O)c3ccc(OC(F)(F)F)cc3)ncnc2cc1OCCCN(C)C | ≤ 1
72 | COc1cc2c(NS(=O)(=O)c3ccccc3)ncnc2cc1OC1CCN(C)CC1 | ≤ 1
73 | COc1cc2c(NS(=O)(=O)c3ccc(OC(F)(F)F)cc3)ncnc2cc1OCCN1CCCCC1 | ≤ 1
74 | COc1cc2c(NS(=O)(=O)c3c(C)cc(C)cc3C)ncnc2cc1OCCN1CCOCC1 | ≤ 1
75 | COc1cc2c(NS(=O)(=O)c3ccc4ccccc4c3)ncnc2cc1OCCN1CCOCC1 | ≤ 1
76 | CCN(CC)CCOc1cc2ncnc(NS(=O)(=O)c3cc(Cl)c(Cl)s3)c2cc1OC | ≤ 1
77 | COc1cc2c(NS(=O)(=O)c3cccc(Cl)c3)ncnc2cc1OCCCN(C)C | ≤ 1
78 | COc1cc2c(NS(=O)(=O)c3cc(Cl)cc(Cl)c3)ncnc2cc1OCCCN(C)C | ≤ 1

Row | Structure (SMILES) | IC50 [µM]
79 | COc1cc2c(NS(=O)(=O)c3ccccc3Br)ncnc2cc1OCCCN1CCOCC1 | ≤ 1
80 | COc1cc2c(NS(=O)(=O)c3ccccc3Cl)ncnc2cc1OCCN1CCN(C)CC1 | ≤ 1
81 | COc1cc2c(NS(=O)(=O)c3ccc(F)cc3)ncnc2cc1OCCCN(C)C | ≤ 1
82 | COc1ccc(S(=O)(=O)Nc2ncnc3cc(OCCCN(C)C)c(OC)cc23)cc1OC | ≤ 1
83 | COc1cc2c(NS(=O)(=O)c3cccc(Cl)c3)ncnc2cc1OCCN1CCOCC1 | ≤ 1
84 | COc1cc2c(NS(=O)(=O)c3ccc(Sc4cccs4)s3)ncnc2cc1OCCCN(C)C | ≤ 1
85 | COc1ccc(OC)c(S(=O)(=O)Nc2ncnc3cc(OCCN4CCCCC4)c(OC)cc23)c1 | ≤ 1
86 | COc1cc2c(NS(=O)(=O)c3ccccc3)ncnc2cc1OCCN1CCOCC1 | ≤ 1
87 | COc1cc2c(NS(=O)(=O)c3cccc(Br)c3)ncnc2cc1OCCCN(C)C | ≤ 1
88 | COc1cc2c(NS(=O)(=O)c3ccc(Cl)s3)ncnc2cc1OC1CCN(C)CC1 | ≤ 1
89 | COc1cc2c(NS(=O)(=O)c3ccc(Cl)cc3)ncnc2cc1OCCN1CCOCC1 | ≤ 1
90 | COc1cc2c(NS(=O)(=O)c3ccc(Sc4ccccc4)s3)ncnc2cc1OC1CCN(C)CC1 | ≤ 1
91 | COc1cc2c(NS(=O)(=O)c3ccccc3Cl)ncnc2cc1OCCCN1CCOCC1 | ≤ 1
92 | COc1cc2c(NS(=O)(=O)c3ccccc3C)ncnc2cc1OCCCN1CCOCC1 | ≤ 1
93 | CCN(CC)CCOc1cc2ncnc(NS(=O)(=O)c3ccccc3Br)c2cc1OC | ≤ 1
94 | COc1cc2c(NS(=O)(=O)c3ccccc3Cl)ncnc2cc1OC1CCN(C)CC1 | ≤ 1
95 | COc1cc2c(NS(=O)(=O)c3ccc(C(C)(C)C)cc3)ncnc2cc1OCCN1CCOCC1 | ≤ 1
96 | COc1cc2c(NS(C)(=O)=O)ncnc2cc1OC1CCN(C)CC1 | ≤ 1
97 | COc1cc2c(NS(C)(=O)=O)ncnc2cc1OCCN1CCOCC1 | ≤ 1
98 | CCN(CC)CCOc1cc2ncnc(NS(C)(=O)=O)c2cc1OC | ≤ 1
99 | COc1cc2c(NS(=O)(=O)c3ccccc3)ncnc2cc1OCCCN(C)C | ≤ 1
100 | COc1ccc(S(=O)(=O)Nc2ncnc3cc(OC4CCN(C)CC4)c(OC)cc23)cc1 | ≤ 1
101 | COc1cc2c(NS(=O)(=O)c3cccc(Br)c3)ncnc2cc1OCCN1CCOCC1 | ≤ 1
